For 20 compounds, IC50 results are on record in patent US12172990B2 (Constellation Pharmaceuticals, Inc., priority 2018, dated 2024).

The target in assay [1] is human TREX2 (residues M44-A279) (Homo sapiens (Human), UniProt Q9BQ50). Description: TREX2 Biochemical Assay (fluorescence assay measuring degradation of dsDNA substrate). The following applies: 2.5 nM TREX2, 60 nM dsDNA substrate, 25 minutes at room temperature. The essentials: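 Final conditions: 2.5 nM His-Tev-tagged TREX2 (E. coli-expressed), 60 nM fluorophore/quencher-labelled dsDNA, 50 mM Tris pH 7.4, 150 mM NaCl, 100 mM MgCl2, 1% DMSO; 10-point compound dose-response. Incubated 25 min at room temperature, then EDTA-quenched; fluorescence read at ex 570/em 615 nm. IC50 from four-parameter fit against pre-quenched and no-inhibitor controls.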
Sequence of human TREX2 (residues M44-A279) (Q9BQ50 whole entry, the tested form may be a part): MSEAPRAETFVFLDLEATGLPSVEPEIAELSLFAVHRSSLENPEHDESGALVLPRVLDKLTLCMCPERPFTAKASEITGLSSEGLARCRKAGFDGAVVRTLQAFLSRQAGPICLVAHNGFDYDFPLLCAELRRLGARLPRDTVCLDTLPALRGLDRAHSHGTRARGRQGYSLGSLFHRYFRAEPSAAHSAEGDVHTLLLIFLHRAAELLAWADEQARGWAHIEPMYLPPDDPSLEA

The target in assay [2] is full length human TREX1 (Homo sapiens (Human), UniProt Q9NSU2). The assay can be described thus: TREX1 Biochemical Assay (fluorescence assay measuring degradation of dsDNA substrate). The following applies: 150 pM TREX1, 60 nM dsDNA substrate, 25 minutes at room temperature. The essentials:
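His-Tev-tagged full-length human TREX1 expressed in E. coli, 150 pM final, with 60 nM TEX615/quencher-labelled 9-mer dsDNA in Tris pH 7.4, NaCl, DTT, BSA, Tween-20, MgCl2 and 1.0% DMSO; 25 min at room temperature, EDTA-quenched. Fluorescence 615 nm (excitation 570 nm); 10-point IC50 by four-parameter fit against pre-quenched and no-inhibitor controls.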

By IC50 is commonly meant the concentration at which inhibition is half-maximal. A high value points to weaker potency.

Sequence of full length human TREX1 (Q9NSU2 whole entry): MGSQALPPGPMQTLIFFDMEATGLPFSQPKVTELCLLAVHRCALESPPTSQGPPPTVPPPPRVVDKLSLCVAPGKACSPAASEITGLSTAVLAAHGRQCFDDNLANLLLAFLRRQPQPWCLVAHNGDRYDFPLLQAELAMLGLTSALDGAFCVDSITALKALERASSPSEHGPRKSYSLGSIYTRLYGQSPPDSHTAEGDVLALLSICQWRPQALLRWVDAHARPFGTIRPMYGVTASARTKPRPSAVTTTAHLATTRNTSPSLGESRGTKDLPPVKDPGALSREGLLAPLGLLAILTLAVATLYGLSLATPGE

Regarding `Cn1c(-c2ccccc2-c2ccncc2)nc(C(=O)Nc2cnoc2)c(O)c1=O` [Example 67, 5-hydroxy-N-(isoxazol-4-yl)-1-methyl-6-oxo-2-(2-(pyridin-4-yl)phenyl)-1,6-dihydropyrimidine-4-carboxamide], the IC50 in assay [1] was in the range of 10 to 100 µM; in assay [2], 1 to 10 µM.
With `Cn1c(-c2cc(Br)ccc2OCCO)nc(C(=O)Nc2cnoc2)c(O)c1=O` [Example 70, 2-(5-bromo-2-(2-hydroxyethoxy)phenyl)-5-hydroxy-N-(isoxazol-4-yl)-1-methyl-6-oxo-1,6-dihydropyrimidine-4-carboxamide], the IC50 was 1 to 10 µM in assay [1] and under 0.1 µM in assay [2].
On to `Cn1nc(CCO)c(-c2nc(C(=O)Nc3cnoc3)c(O)c(=O)n2C)n1` [Example 73, 5-hydroxy-2-(5-(2-hydroxyethyl)-2-methyl-2H-1,2,3-triazol-4-yl)-N-(isoxazol-4-yl)-1-methyl-6-oxo-1,6-dihydropyrimidine-4-carboxamide], for which the IC50 in assay [1] fell in the range of 10 to 100 µM; in assay [2], 0.1 to 1 µM.
The matching figures for `Cn1nnc(-c2nc(C(=O)Nc3cnoc3)c(O)c(=O)n2C)c1CCO` [Example 74, 5-hydroxy-2-(5-(2-hydroxyethyl)-1-methyl-1H-1,2,3-triazol-4-yl)-N-(isoxazol-4-yl)-1-methyl-6-oxo-1,6-dihydropyrimidine-4-carboxamide]: 10 to 100 µM and 1 to 10 µM.
Regarding `Cn1c(-c2ccccc2NCCCO)nc(C(=O)Nc2cnoc2)c(O)c1=O` [Example 75, 5-hydroxy-2-(2-((3-hydroxypropyl)amino)phenyl)-N-(isoxazol-4-yl)-1-methyl-6-oxo-1,6-dihydropyrimidine-4-carboxamide], the IC50 is over 100 µM in assay [1] and over 10 µM in assay [2].
In the case of `Cn1c(-c2ccccc2N[C@H]2C[C@@H](O)C2)nc(C(=O)Nc2cnoc2)c(O)c1=O` [Example 76, 5-hydroxy-2-(2-(((1s,3s)-3-hydroxycyclobutyl)amino)phenyl)-N-(isoxazol-4-yl)-1-methyl-6-oxo-1,6-dihydropyrimidine-4-carboxamide], the half-inhibitory concentration (IC50) in assay [1] was 10 to 100 µM; in assay [2] it was 0.1 to 1 µM.
Take `Cn1c(-c2cccc(Br)c2CCO)nc(C(=O)Nc2cnoc2)c(O)c1=O` [Example 78, 2-(3-bromo-2-(2-hydroxyethyl)phenyl)-5-hydroxy-N-(isoxazol-4-yl)-1-methyl-6-oxo-1,6-dihydropyrimidine-4-carboxamide]: the concentration for half-maximal inhibition (IC50) in assay [1] was 1 to 10 µM; in assay [2], under 0.1 µM.
The matching figures for `C[C@H](Cc1ccccc1)c1nc(C(=O)Nc2cnoc2)c(O)c(=O)n1C` [Example 79, (R)-5-hydroxy-N-(isoxazol-4-yl)-1-methyl-6-oxo-2-(1-phenylpropan-2-yl)-1,6-dihydropyrimidine-4-carboxamide]: 1 to 10 µM and under 0.1 µM.
Regarding `C[C@@H](Cc1ccccc1)c1nc(C(=O)Nc2cnoc2)c(O)c(=O)n1C` [Example 80, (S)-5-hydroxy-N-(isoxazol-4-yl)-1-methyl-6-oxo-2-(1-phenylpropan-2-yl)-1,6-dihydropyrimidine-4-carboxamide], the 50% inhibitory concentration (IC50) was 1 to 10 µM in assay [1] and under 0.1 µM in assay [2].
For `Cn1c([C@H]2CCC[C@@H](NC(=O)c3ccc(Cl)c(Cl)c3)C2)nc(C(=O)Nc2cnoc2)c(O)c1=O` [Example 82, 2-((1S,3R)-3-(3,4-dichlorobenzamido)cyclohexyl)-5-hydroxy-N-(isoxazol-4-yl)-1-methyl-6-oxo-1,6-dihydropyrimidine-4-carboxamide], the concentration for half-maximal inhibition (IC50) fell in the range of 10 to 100 µM in assay [1] and 1 to 10 µM in assay [2].
The corresponding values for `C[C@@H]1CC[C@H](c2nc(C(=O)Nc3cnoc3)c(O)c(=O)n2C)CN1C(=O)c1ccc(Cl)c(Cl)c1` [Example 83, 2-((3S,6R)-1-(3,4-dichlorobenzoyl)-6-methylpiperidin-3-yl)-5-hydroxy-N-(isoxazol-4-yl)-1-methyl-6-oxo-1,6-dihydropyrimidine-4-carboxamide] are 10 to 100 µM and 1 to 10 µM.
The matching figures for `C[C@H]1CC[C@H](c2nc(C(=O)Nc3cnoc3)c(O)c(=O)n2C)CN1C(=O)c1ccc(Cl)c(Cl)c1` [Example 84, 2-((3S,6S)-1-(3,4-dichlorobenzoyl)-6-methylpiperidin-3-yl)-5-hydroxy-N-(isoxazol-4-yl)-1-methyl-6-oxo-1,6-dihydropyrimidine-4-carboxamide]: 1 to 10 µM and under 0.1 µM.
The matching figures for `Cn1c([C@H]2CCN(C(=O)c3ccc(Cl)cc3)C2)nc(C(=O)Nc2cnoc2)c(O)c1=O` [Example 85, (S)-2-(1-(4-chlorobenzoyl)pyrrolidin-3-yl)-5-hydroxy-N-(isoxazol-4-yl)-1-methyl-6-oxo-1,6-dihydropyrimidine-4-carboxamide]: 10 to 100 µM and 0.1 to 1 µM.
Turning to `Cn1c([C@@H]2CCN(C(=O)c3ccc(Cl)cc3)C2)nc(C(=O)Nc2cnoc2)c(O)c1=O` [Example 86, (R)-2-(1-(4-chlorobenzoyl)pyrrolidin-3-yl)-5-hydroxy-N-(isoxazol-4-yl)-1-methyl-6-oxo-1,6-dihydropyrimidine-4-carboxamide], the IC50 in assay [1] is 10 to 100 µM; in assay [2], 0.1 to 1 µM.
In the case of `Cn1c(C2CCCN(S(C)(=O)=O)C2)nc(C(=O)Nc2cnoc2)c(O)c1=O` (stereo not shown) [Example 87, 5-hydroxy-N-(isoxazol-4-yl)-1-methyl-2-(1-(methylsulfonyl)piperidin-3-yl)-6-oxo-1,6-dihydropyrimidine-4-carboxamide], the values for the 50% inhibitory concentration (IC50) in assay [1] and in assay [2] were 10 to 100 µM and 1 to 10 µM, respectively.
On to `Cn1c([C@H]2CCCN(C(=O)c3ccc(F)c(Cl)c3)C2)nc(C(=O)Nc2cnoc2)c(O)c1=O` [Example 88, (S)-2-(1-(3-chloro-4-fluorobenzoyl)piperidin-3-yl)-5-hydroxy-N-(isoxazol-4-yl)-1-methyl-6-oxo-1,6-dihydropyrimidine-4-carboxamide], for which the IC50 in assay [1] is 1 to 10 µM; in assay [2], under 0.1 µM.
The corresponding values for `Cn1c([C@H]2CCCN(C(=O)Cc3ccc(F)c(F)c3)C2)nc(C(=O)Nc2cnoc2)c(O)c1=O` [Example 91, (S)-2-(1-(2-(3,4-difluorophenyl)acetyl)piperidin-3-yl)-5-hydroxy-N-(isoxazol-4-yl)-1-methyl-6-oxo-1,6-dihydropyrimidine-4-carboxamide] are 10 to 100 µM and 0.1 to 1 µM.
Take `Cn1c([C@H]2CCCN(S(=O)(=O)c3ccc(Cl)c(Cl)c3)C2)nc(C(=O)Nc2cnoc2)c(O)c1=O` [Example 92, (S)-2-(1-((3,4-dichlorophenyl)sulfonyl)piperidin-3-yl)-5-hydroxy-N-(isoxazol-4-yl)-1-methyl-6-oxo-1,6-dihydropyrimidine-4-carboxamide]: the values for the IC50 in assay [1] and in assay [2] were 10 to 100 µM and 0.1 to 1 µM, respectively.
The corresponding values for `Cn1c(C2CCCN(C(=O)c3cccnc3)C2)nc(C(=O)Nc2cnoc2)c(O)c1=O` (stereo not shown) [Example 93, 5-hydroxy-N-(isoxazol-4-yl)-1-methyl-2-(1-nicotinoylpiperidin-3-yl)-6-oxo-1,6-dihydropyrimidine-4-carboxamide] are 1 to 10 µM and 0.1 to 1 µM.
The corresponding values for `Cn1c(C2CCCN(C(=O)c3cn[nH]c3)C2)nc(C(=O)Nc2cnoc2)c(O)c1=O` (stereo not shown) [Example 94, 2-(1-(1H-pyrazole-4-carbonyl)piperidin-3-yl)-5-hydroxy-N-(isoxazol-4-yl)-1-methyl-6-oxo-1,6-dihydropyrimidine-4-carboxamide] are 10 to 100 µM and 0.1 to 1 µM.
